Experimental data reported in patent US20090197910A1, “NOVEL VIRAL REPLICATION INHIBITORS” (KATHOLIEKE UNIVERSITEIT LEUVEN, priority 2006, published 2009).

Experiments:
[1] = Cytostatic effect on Huh-5-2 cells (MTS method, parallel cultures); type: cell-based; settings: human, read-out: CC50 (concentration required to inhibit the proliferation of exponentially growing Huh-5-2 cells by 50%)
Description: (§1) Huh-5-2 cells [a cell line with a persistent HCV replicon I3891uc-ubi-neo/NS3-3′/5.1; replicon with firefly luciferase-ubiquitin-neomycin phosphotransferase fusion protein and EMCV-IRES driven NS3-5B HCV polyprotein] was cultured in RPMI medium (Gibco) supplemented with 10% fetal calf serum, 2 mM L-glutamine (Life Technologies), 1× non-essential amino acids (Life Technologies); 100 IU/ml penicillin and 100 ug/ml streptomycin and 250 ug/ml G418 (Geneticin, Life Technologies). Cells were seeded at a densitiy of 7000 cells per well in 96 well View Plate™ (Packard) in medium containing the same components as described above, except for G418. Cells were allowed to adhere and proliferate for 24 hr. At that time, culture medium was removed and serial dilutions of the test compounds were added in culture medium lacking G418. Interferon alfa 2a (500 IU) was included as a positive control. Plates were further incubated at 37° C. and 5% CO2 for 72 hours. Replication of the HCV replicon in Huh-5 cells results in luciferase activity in the cells. Luciferase activity is measured by adding 50 μl of 1× Glo-lysis buffer (Promega) for 15 minutes followed by 50 ul of the Steady-Glo Luciferase assay reagent (Promega). Luciferase activity is measured with a luminometer and the signal in each individual well is expressed as a percentage of the untreated cultures. Parallel cultures of Huh-5-2 cells, seeded at a density of 7000 cells/well of classical 96-well cell culture plates (Becton-Dickinson) are treated in a similar fashion except that no Glo-lysis buffer or Steady-Glo Luciferase reagent is added. Instead the density of the culture is measured by means of the MTS method (Promega).

HCV Subgenomic Replicon = assay: HCV-Huh-5-2 replicon cell assay (luciferase); type: cell-based, Hepatitis C virus; settings: for EC50: Hepatitis C virus, HCV subgenomic replicon in Huh-5-2 cells, 72 hours, luciferase, read-out: EC50 (concentration required to inhibit luciferase activity in the replicon system by 50%); for SI (selectivity index, ratio of CC50 to EC50): Huh-5-2 cells
Description: as §1

Compound	CC50 at 72 h [1] [µM]	EC50 (HCV Subgenomic Replicon) [µM]	SI (selectivity index, ratio of CC50 to EC50) (HCV Subgenomic Replicon)
O=c1oc2ccccc2cc1CSc1nc2ccccc2[nH]1 [Compound 4a, 3-(1H-Benzoimidazol-2-ylsulfanylmethyl)-chromen-2-one]	90.1	26.6	3.38
O=c1oc2ccccc2cc1CSc1nc2cc(F)ccc2[nH]1 [Compound 4b, 3-(5-Fluoro-1H-benzoimidazol-2-ylsulfanylmethyl)-chromen-2-one]	44.8	11.5	3.89
O=C(c1ccccc1)c1ccc2[nH]c(SCc3cc4ccccc4oc3=O)nc2c1 [Compound 4c, 3-(5-Benzoyl-1H-benzoimidazol-2-ylsulfanylmethyl)-chromen-2-one]	36.8	6.61	5.58
Cc1cc2nc(SCc3cc4ccccc4oc3=O)[nH]c2cc1C [Compound 4d, 3-(5,6-Dimethyl-1H-benzoimidazol-2-ylsulfanylmethyl)-chromen-2-one]	66.6	15.2	4.37
O=c1oc2ccccc2cc1CSc1nc2cc(Cl)c(Cl)cc2[nH]1 [Compound 4e, 3-(5,6-Dichloro-1H-benzoimidazol-2-ylsulfanylmethyl)-chromen-2-one]	74.4	15.5	4.80
Cc1cccc2cc(CSc3nc4ccccc4[nH]3)c(=O)oc12 [Compound 4f, 3-(1H-benzoimidazol-2-ylsulfanylmethyl)-8-methyl-chromen-2-one]	27.3	9.89	2.77
O=c1oc2ccc(Br)cc2cc1CSc1nc2ccccc2[nH]1 [Compound 4g, 3-(1H-Benzoimidazol-2-ylsulfanylmethyl)-6-bromo-chromen-2-one]	41.7	3.98	10.4
COc1cccc2cc(CSc3nc4cc(F)ccc4[nH]3)c(=O)oc12 [Compound 4h, 3-(5-Fluoro-1H-benzoimidazol-2-ylsulfanylmethyl)-8-methoxy-chromen-2-one]	41.9	15.9	2.63
O=c1oc2ccc(Br)cc2cc1CSc1nc2cc(F)ccc2[nH]1 [Compound 4i, 6-Bromo-3-(5-fluoro-1H-benzoimidazol-2-ylsulfanylmethyl)-chromen-2-one]	26.7	3.36	7.96
COc1cccc2cc(CSc3nc4cc(Cl)c(Cl)cc4[nH]3)c(=O)oc12 [Compound 4j, 3-(5,6-Dichloro-1H-benzoimidazol-2-ylsulfanylmethyl)-8-methoxy-chromen-2-one]	11.1	3.58	3.12
O=c1oc2ccc(Br)cc2cc1CSc1nc2cc(Cl)c(Cl)cc2[nH]1 [Compound 4k, 6-Bromo-3-(5,6-dichloro-1H-benzoimidazol-2-ylsulfanylmethyl)-chromen-2-one]	44.1	2.29	19.3
CC(=O)OCC1OC(n2c(SCc3cc4ccccc4oc3=O)nc3ccccc32)C(OC(C)=O)C(OC(C)=O)C1OC(C)=O (stereo not drawn) [Compound 7a, Acetic acid 3,5-diacetoxy-2-acetoxymethyl-6-[2-(2-oxo-2H-chromen-3-ylmethylsulfanyl)-benzoimidazol-1-yl]-tetrahydro-pyran-4-yl ester]	76.4	11.1	6.88
CC(=O)OCC1OC(n2c(SCc3cc4ccccc4oc3=O)nc3cc(C)ccc32)C(OC(C)=O)C(OC(C)=O)C1OC(C)=O (stereo not drawn) [Compound 7b, Acetic acid 3,5-diacetoxy-2-acetoxymethyl-6-[5-methyl-2-(2-oxo-2H-chromen-3-ylmethylsulfanyl)-benzoimidazol-1-yl]-tetrahydro-pyran-4-yl ester]	44.8	8.28	5.42
CC(=O)OCC1OC(n2c(SCc3cc4ccccc4oc3=O)nc3cc(F)ccc32)C(OC(C)=O)C(OC(C)=O)C1OC(C)=O (stereo not drawn) [Compound 7c, Acetic acid 3,5-diacetoxy-2-acetoxymethyl-6-[5-fluoro-2-(2-oxo-2H-chromen-3-ylmethylsulfanyl)-benzoimidazol-1-yl]-tetrahydro-pyran-4-yl ester]	43.1	3.88	11.1
CC(=O)OCC1OC(n2c(SCc3cc4ccccc4oc3=O)nc3cc(Cl)c(Cl)cc32)C(OC(C)=O)C(OC(C)=O)C1OC(C)=O (stereo not drawn) [Compound 7d, Acetic acid 3,5-diacetoxy-2-acetoxymethyl-6-[5,6-dichloro-2-(2-oxo-2H-chromen-3-ylmethylsulfanyl)-benzoimidazol-1-yl]-tetrahydro-pyran-4-yl ester]	19.8	3.14	6.33
CC(=O)OCC1OC(n2c(SCc3cc4cc(Br)ccc4oc3=O)nc3ccccc32)C(OC(C)=O)C(OC(C)=O)C1OC(C)=O (stereo not drawn) [Compound 7e, Acetic acid 4,5-diacetoxy-2-acetoxymethyl-6-[2-(6-bromo-2-oxo-2H-chromen-3-ylmethylsulfanyl)-benzoimidazol-1-yl]-tetrahydro-pyran-3-yl ester]	43.1	4.12	10.4
CC(=O)OCC1OC(n2c(SCc3cc4cc(Br)ccc4oc3=O)nc3cc(F)ccc32)C(OC(C)=O)C(OC(C)=O)C1OC(C)=O (stereo not drawn) [Compound 7f, Acetic acid 3,5-diacetoxy-2-acetoxymethyl-6-[2-(6-bromo-2-oxo-2H-chromen-3-ylmethylsulfanyl)-5-fluoro-benzoimidazol-1-yl]-tetrahydro-pyran-4-yl ester]	21.9	3.33	6.59
COc1cccc2cc(CSc3nc4cc(Cl)c(Cl)cc4n3C3OC(COC(C)=O)C(OC(C)=O)C(OC(C)=O)C3OC(C)=O)c(=O)oc12 (stereo not drawn) [Compound 7h, Acetic acid 3,4,5-triacetoxy-6-[5,6-dichloro-2-(8-methoxy-2-oxo-2H-chromen-3-ylmethylsulfanyl)-benzoimidazol-1-yl]-tetrahydro-pyran-2-ylmethyl ester]	33.1	4.35	7.62
COc1cccc2cc(CSc3nc4cccnc4[nH]3)c(=O)oc12 [Compound 16b, 3-(3H-Imidazo[4,5-b]pyridin-2-ylsulfanylmethyl)-8-methoxy-chromen-2-one]	30.3	10.9	2.78
O=c1oc2ccc(Br)cc2cc1CSc1nc2cccnc2[nH]1 [Compound 16c, 3-(3H-Imidazo[4,5-b]pyridin-2-ylsulfanylmethyl)-6-bromo-chromen-2-one]	128	6.8	18.82
O=c1oc2ccccc2cc1CSc1nc2cnc(Cl)nc2[nH]1 [Compound 16d, 3-(2-Chloro-9H-purin-8-ylsulfanylmethyl)-chromen-2-one]	109	2.03	53.69
